The values that follow come from patent publication US9249151B2, “Bis-amido pyridines” (Boehringer Ingelheim International GmbH, priority 2013, dated 2016).

BIR3 domain of human cIAP1 (amino acids 256 to 363; cIAP1 BIR3), sequence (Q13490 256-363): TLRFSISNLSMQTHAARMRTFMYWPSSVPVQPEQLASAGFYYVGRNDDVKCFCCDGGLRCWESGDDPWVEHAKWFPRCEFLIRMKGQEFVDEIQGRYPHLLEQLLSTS

The first assay has as its target BIR3 domain of human cIAP1 (amino acids 256 to 363; cIAP1 BIR3) (Homo sapiens (Human), UniProt Q13490). As to the kind of experiment: cIAP1 BIR3 binding assay (DELFIA).
Details: not given
As to the method: XIAP BIR3 and cIAP1 BIR3 Binding Assays (DELFIA)
Peptide […]-Lys(Biotin), representing the N-terminus of mature human SMAC (SMAC peptide), was used as interaction partner in the protein-peptide interaction assay.
BIR3 domains (10 nM) were incubated with SMAC peptide (10 nM) in assay buffer (50 mM Tris, 120 mM NaCl, 0.1% BSA, 1 mM DTT, 0.05% TritonX100) for one hour at room temperature in the presence of inhibitory compounds. The assay mixture was transferred to a streptavidin coated plate and incubated for one hour at room temperature to allow binding of the biotinylated peptide and associated BIR3 domains to the plate. After several washing steps Eu labeled anti-GST antibody (e.g. Perkin Elmer DELFIA Eu-N1-antiGST AD0250) was added to detect BIR3 domain-SMAC peptide interactions m according to Perkin Elmer's instructions. […] Time resolved Europium fluoresecence was measured in a Wallac Victor using Standard assay settings.
DELFIA assay results were plotted against compound concentrations and Software GraphPad Prizm was used to calculate half maximal inhibitory concentrations (IC50 values).
For orientation: IC50 means the concentration that inhibits the measured activity by half. `CNC(C)C(=O)Nc1cc(-c2ncnc3cccc(C)c23)cc(NC(=O)c2ccc(Cl)cn2)n1` (stereo not shown) [Example 9, 5-chloro-N-{6-[2-(methylamino)propanamido]-4-(5-methylquinazolin-4-yl)pyridin-2-yl}pyridine-2-carboxamide] showed an IC50 of 1 nM.

Still in this assay, the particulars now being: BIR3 domain 10 nM, SMAC peptide 10 nM; values represent the (S)-isomers; * = racemic compound; read-out: cIAP1 BIR-3 IC50.
`CNC(C)C(=O)Nc1cc(-c2nccc3c(=O)n(C)n(C)c23)cc(NC(=O)c2ccc(Cl)cn2)n1` (racemic) [Example 58, 5-chloro-N-(4-{1,2-dimethyl-3-oxo-1H,2H,3H-pyrazolo-[3,4-c]pyridin-7-yl}-6-[2-(methylamino)propanamido]-pyridin-2-yl)pyridine-2-carboxamide]: the half-inhibitory concentration (IC50) is 3 nM.
As for `CNC(C)C(=O)Nc1cc(-c2ncnc3c(C)nn(C)c23)cc(NC(=O)c2ccc(Cl)cn2)n1` (stereo not shown) [Example 1, 5-chloro-N-(4-{1,3-dimethyl-1H-pyrazolo[4,3-d]pyrimidin-7-yl}-6-[2-(methylamino)propanamido]pyridin-2-yl)pyridine-2-carboxamide], the IC50 was 1 nM.
In the case of `CNC(C)C(=O)Nc1cc(-c2ncnc3c(C)nn(C)c23)cc(NC(=O)c2cc3c(cn2)COC3)n1` (stereo not shown) [Example 2, N-(4-{1,3-dimethyl-1H-pyrazolo[4,3-d]pyrimidin-7-yl}-6-[2-(methylamino)propanamido]-pyridin-2-yl)-1H,3H-furo[3,4-c]pyridine-6-carboxamide], the IC50 was 2 nM.
For the compound `CNC(C)C(=O)Nc1cc(-c2c(C)noc2C)cc(NC(=O)c2ccc(Cl)cn2)n1` (stereo not shown) [Example 3, 5-chloro-N-[4-(dimethyl-1,2-oxazol-4-yl)-6-[2-(methylamino)propanamido]-pyridin-2-yl]pyridine-2-carboxamide], the IC50 was determined as 3 nM.
Regarding `CNC(C)C(=O)Nc1cc(-c2ccncc2C#N)cc(NC(=O)c2ccc(Cl)cn2)n1` (stereo not shown) [Example 4, 5-chloro-N-[4-(3-cyanopyridin-4-yl)-6-[2-(methylamino)propanamido]-pyridin-2-yl]pyridine-2-carboxamide], the concentration for half-maximal inhibition (IC50) was 28 nM.
Same read-out and setting: next, `CNC(C)C(=O)Nc1cc(-c2c(C)ncnc2C)cc(NC(=O)c2ccc(Cl)cn2)n1` (stereo not shown) [Example 5, 5-chloro-N-[4-(4,6-dimethylpyrimidin-5-yl)-6-[2-(methylamino)propanamido]-pyridin-2-yl]pyridine-2-carboxamide]: 5 nM; `CNC(C)C(=O)Nc1cc(-c2c(C)nc3ccccn23)cc(NC(=O)c2ccc(Cl)cn2)n1` (stereo not shown) [Example 6, 5-chloro-N-{6-[2-(methylamino)propanamido]-4-{2-methylimidazo[1,2-a]pyridin-3-yl}pyridin-2-yl}pyridine-2-carboxamide]: 10 nM.
Regarding `CNC(C)C(=O)Nc1cc(-c2cccc3cnn(C)c23)cc(NC(=O)c2ccc(Cl)cn2)n1` (stereo not shown) [Example 7, 5-chloro-N-[4-(1-methyl-1H-indazol-7-yl)-6-[2-(methylamino)propanamido]-pyridin-2-yl]pyridine-2-carboxamide], the half-inhibitory concentration (IC50) turned out to be 3 nM.
Regarding `CNC(C)C(=O)Nc1cc(-c2nccc3cccc(C)c23)cc(NC(=O)c2ccc(Cl)cn2)n1` (stereo not shown) [Example 8, 5-chloro-N-{6-[2-(methylamino)propanamido]-4-(8-methylisoquinolin-1-yl)pyridin-2-yl}pyridine-2-carboxamide], the IC50 turned out to be 1 nM.
On the same count and under the same terms, next, `CNC(C)C(=O)Nc1cc(-c2c(C)nc3cccc(C)n23)cc(NC(=O)c2ccc(Cl)cn2)n1` (stereo not shown) [Example 10, 5-chloro-N-(4-{2,5-dimethylimidazo[1,2-a]pyridin-3-yl]-6-[2-(methylamino)propanamido]-pyridin-2-yl)pyridine-2-carboxamide]: 7 nM; `CNC(C)C(=O)Nc1cc(-c2cccc3nc(C)c(C)n23)cc(NC(=O)c2ccc(Cl)cn2)n1` (stereo not shown) [Example 11]: 1 nM; `CNC(C)C(=O)Nc1cc(-c2cccc3nn(C)c(C)c23)cc(NC(=O)c2ccc(Cl)cn2)n1` (stereo not shown) [Example 12, 5-chloro-N-[4-(2,3-dimethyl-2H-indazol-4-yl)-6-[2-(methylamino)propanamido]-pyridin-2-yl]pyridine-2-carboxamide]: 3 nM.
